In patent US4902800A, “1-Substituted-4-pyrrolidinopiperidines as inhibitors of interleukin 1” (American Home Products Corporation, priority 1988, dated 1990):

Tested on: IL 1-induced release of neutral protease from rabbit articular chondrocytes
Assay: Inhibition of IL 1-induced release of neutral protease from rabbit articular chondrocytes (azocoll degradation)
Format: cell-based, rabbit (New Zealand White)
Conditions: Oryctolagus cuniculus, Chondrocyte, test compound 10 min. prior to human IL 1, 24 h after IL 1 stimulation, read-out: % Inhibition (I.S.D.)
Procedure: The ability of the compounds of the inventions to inhibit interleukin 1 is measured by the ability of the test compounds to inhibit the IL 1-induced release of neutral protease from rabbit articular chondrocytes.
Male New Zealand White rabbits are anesthetized with 50 mg/kg of ketamine (i.m.) and killed by an intracardiac injection of 3 mls. of Nembutal. The knee joints of both legs are resected and the articular surfaces are exposed. Cartilage slices are obtained using scalpel and are placed in a tissue culture dish (100 mm diameter) containing 10 mls of Hank's balanced salt solution (HBSS). The chondrocytes within the cartilage slices are then liberated by a series of enzyme digestions. The slices are incubated for 10 min. at 37° C. in 0.05% hyaluronidase (Sigma H-3884), rinsed with HBSS and incubated with 0.2% trypsin (Sigma T-2395) for 10 min. at 37° C. The slices are rinsed again and incubated for 10 mins. at 37° C. with 1.2% collagenase (Sigma C-5138). The slices are then rinsed again with HBSS and resuspended in 10 ml of Ham's F-12 medium containing 10% fetal bovine calf serum (FCS) and 0.2% collagenase and incubated overnight at 37° C. in a 5% CO2 incubator. The next day, the medium containing the digested cartilage fragments and liberated chondrocytes is transferred to a 15 ml centrifuge tube and the cells are collected by centrifugation and washed twice and resuspended in Ham's F-12 medium. The cells are then plated into 24-well tissue culture plates (2×10^5 cells/well) and incubated at 37° C. until confluent (usually 4-6 days).
The confluent chondrocytes are rinsed twice with serum-free Ham's F-12 medium and 1 ml is added to each well. Fifty μl of purified human IL 1 (100 Units/ml; Genzyme Corporation, Boston, MA) is then added to stimulate these cells to secrete neutral protease. To measure drug effects, the cells are treated with test compound 10 min. prior to addition of IL 1. The standard screening dose is 10 μM. Twenty-four hours after IL 1 stimulation, supernatant fluids are collected and assayed for neutral protease activity.
The neutral protease activity of chondrocyte supernatant fluids is determined by their ability to degrade an insoluble protease substrate, azocoll (Sigma). Supernatants are treated for 10 min. at room temperature with 350 μM p-aminophenylmercuric acetate to activate the latent enzyme. Three hundred μl of supernatant is then mixed with 500 μl of a 20 mg/ml suspension of azocoll and incubated at 37° C. for 18-24 hrs. with gentle rocking. The mixtures are centrifuged and the amount of substrate hydrolyzed is determined by measuring the absorbance of the supernatant at 520 nm.
Drug effects are calculated as the % change in enzyme activity (absorbance)by supernatants from drug-treated chondrocytes relative to enzyme activity of supernatants from vehicle-treated chondrocytes as follows: [formula]

Compound	inhibition at 0.1 µM [%]	inhibition at 1 µM [%]	inhibition at 10 µM [%]
CS(=O)(=O)c1ccc(N2CCC(N3CCCC3)CC2)cc1 [Example 2, 1-[4-(Methylsulfonyl)phenyl]-4-(1-pyrrolidinyl)piperidine]	22	87	91
N#Cc1ccc(N2CCC(N3CCCC3)CC2)cc1 [Example 1, 4-[4-(1-Pyrrolidinyl)-1-piperidinyl]benzonitrile]	48	57	26
